In BindingDB's records for doi:10.1016/j.ejmech.2021.113556 (Zhejiang University, 2021):
pIC50: −log10 of the molar value.

What was measured:
[1] = target: Proteasome subunit beta type-6 (Homo sapiens) (UniProt P28072); assay: Inhibition of caspase-like activity of human proteasome beta-1c subunit using SUC-LLE-AMC as flurogenic substrate preincubated for 15 mins followed by substrate addition and measured after 1 hr by fluorescence assay
[2] = target: Proteasome subunit beta type-7 (Homo sapiens) (UniProt Q99436); assay: Inhibition of human trypsin-like activity of 20s proteasome beta 2c subunit using SUC-KQL-AMC as flurogenic substrate preincubated for 15 mins followed by substrate addition and measured after 1 hr by fluorescence assay
Proteasome subunit beta type-7 (Homo sapiens), sequence (Q99436 whole entry, looked up): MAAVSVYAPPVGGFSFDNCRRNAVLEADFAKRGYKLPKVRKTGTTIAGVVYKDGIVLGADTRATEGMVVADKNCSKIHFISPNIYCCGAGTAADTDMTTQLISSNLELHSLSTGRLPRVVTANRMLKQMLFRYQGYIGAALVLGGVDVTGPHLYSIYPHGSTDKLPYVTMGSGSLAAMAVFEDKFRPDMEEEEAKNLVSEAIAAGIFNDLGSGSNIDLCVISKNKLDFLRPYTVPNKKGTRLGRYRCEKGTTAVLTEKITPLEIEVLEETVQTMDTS

Proteasome subunit beta type-6 (Homo sapiens), sequence (P28072 whole entry, looked up): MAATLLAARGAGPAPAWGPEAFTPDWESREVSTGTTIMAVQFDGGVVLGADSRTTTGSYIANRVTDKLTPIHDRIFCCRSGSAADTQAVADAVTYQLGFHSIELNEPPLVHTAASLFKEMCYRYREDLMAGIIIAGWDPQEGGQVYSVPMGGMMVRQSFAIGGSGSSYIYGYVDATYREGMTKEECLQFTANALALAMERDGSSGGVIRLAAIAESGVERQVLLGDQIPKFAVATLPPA

| pIC50 [1] | pIC50 [2] | SMILES |
| --- | --- | --- |
| 5.36 | < 5.00 | C[C@H](NC(=O)N1CCC(NC(=O)c2nccs2)CC1)C(=O)N[C@@H](Cc1c[nH]c2ccccc12)C(=O)N[C@@H](Cc1ccccc1)C(=O)[C@@]1(C)CO1 |
| < 5.00 | < 5.00 | COc1ccc(C[C@H](NC(=O)[C@@H](C)NC(=O)N2CCC(OC)CC2)C(=O)N[C@@H](Cc2ccccc2)C(=O)[C@@]2(C)CO2)cc1 |
| < 5.00 | < 5.00 | COc1ccc(C[C@H](NC(=O)[C@@H](C)NC(=O)N2CC[C@H](OC)C2)C(=O)N[C@@H](Cc2ccccc2)C(=O)[C@@]2(C)CO2)cc1 |
| < 5.00 | < 5.00 | COc1ccc(C[C@H](NC(=O)[C@@H](C)NC(=O)N2CCC[C@@H](OC)C2)C(=O)N[C@@H](Cc2ccccc2)C(=O)[C@@]2(C)CO2)cc1 |
